According to patent publication US8134015B2, “Compound inhibiting in vivo phosphorous transport and medicine containing the same” (Kyowa Hakko Kirin Co., Ltd., priority 2003, dated 2012):

Tests used:
[1] = biological target: T1, human NaPi-2a (Homo sapiens, UniProt Q06495); assay: Sodium-dependent phosphate uptake of Xenopus oocytes which expressed NaPi-2a (32P); type: cell-based; settings: phosphate uptake, Xenopus oocytes expressing human NaPi-2a; five concentration levels
T1 construct: expressed in transfected cells
T1 sequence (Q06495 1-639): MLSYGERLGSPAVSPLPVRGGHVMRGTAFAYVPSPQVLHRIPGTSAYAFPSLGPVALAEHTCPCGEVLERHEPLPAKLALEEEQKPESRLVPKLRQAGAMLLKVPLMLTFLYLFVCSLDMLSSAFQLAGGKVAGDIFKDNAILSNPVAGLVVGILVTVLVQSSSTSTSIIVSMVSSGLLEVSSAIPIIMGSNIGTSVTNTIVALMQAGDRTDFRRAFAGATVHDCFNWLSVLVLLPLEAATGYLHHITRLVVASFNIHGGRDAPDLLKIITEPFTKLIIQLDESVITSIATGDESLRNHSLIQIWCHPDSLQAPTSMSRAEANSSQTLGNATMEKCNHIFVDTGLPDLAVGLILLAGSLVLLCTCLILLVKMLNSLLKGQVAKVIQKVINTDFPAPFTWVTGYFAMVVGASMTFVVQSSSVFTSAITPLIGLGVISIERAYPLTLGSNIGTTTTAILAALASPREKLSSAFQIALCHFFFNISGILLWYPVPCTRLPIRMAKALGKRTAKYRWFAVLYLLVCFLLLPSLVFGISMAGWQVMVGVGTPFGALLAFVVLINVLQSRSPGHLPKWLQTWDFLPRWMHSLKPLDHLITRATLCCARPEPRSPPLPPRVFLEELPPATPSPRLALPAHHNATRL
Description: Experiment of Sodium-Dependent Phosphate Uptake of Xenopus oocytes which Expressed NaPi-2a
In the test, a group with the addition of choline chloride (Choline Cl) was used as a negative control for nonspecific uptake, and PFA (phosphonoformic acid) was used as a positive control for phosphate transport inhibition.

[2] = biological target: T2, rat NaPi-2b (Rattus norvegicus, UniProt Q9JJ09); assay: Sodium-dependent phosphate uptake of Xenopus oocytes which expressed NaPi-2b (32P); type: cell-based; settings: Xenopus oocytes expressing rat NaPi-2b, 32P radioactive phosphorus; read-out: IC50 (phosphate uptake inhibitory activity)
T2 construct: expressed in transfected cells; host or cells: Xenopus oocytes injected with cRNA
T2 sequence (Q9JJ09 1-695): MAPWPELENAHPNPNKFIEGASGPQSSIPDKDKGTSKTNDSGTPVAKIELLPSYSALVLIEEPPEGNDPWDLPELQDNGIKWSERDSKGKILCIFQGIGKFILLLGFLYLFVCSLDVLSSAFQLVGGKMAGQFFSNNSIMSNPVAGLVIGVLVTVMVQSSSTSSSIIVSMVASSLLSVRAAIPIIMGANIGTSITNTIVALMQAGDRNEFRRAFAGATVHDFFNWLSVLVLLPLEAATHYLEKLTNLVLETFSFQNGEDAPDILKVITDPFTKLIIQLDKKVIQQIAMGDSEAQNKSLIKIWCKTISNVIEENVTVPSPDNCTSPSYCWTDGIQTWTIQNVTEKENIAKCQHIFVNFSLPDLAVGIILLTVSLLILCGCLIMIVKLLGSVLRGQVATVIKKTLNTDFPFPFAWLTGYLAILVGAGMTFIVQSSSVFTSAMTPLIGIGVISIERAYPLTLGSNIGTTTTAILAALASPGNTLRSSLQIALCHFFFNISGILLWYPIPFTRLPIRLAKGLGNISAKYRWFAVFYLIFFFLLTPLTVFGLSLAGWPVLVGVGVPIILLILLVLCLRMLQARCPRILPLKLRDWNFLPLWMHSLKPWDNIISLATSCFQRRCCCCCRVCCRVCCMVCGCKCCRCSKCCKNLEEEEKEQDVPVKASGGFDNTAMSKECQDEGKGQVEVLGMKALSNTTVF
Summary of the method: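 Percent inhibition at 300 μM and 100 μM comes from the same inhibition curve of 32P uptake. Assay used oocytes expressing rat NaPi-2b after 2 days of culture.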

Row | SMILES | IC50 [1] [µM] | IC50 [2] [µM]
1 | Cc1ccc(/C=N/NC(=O)c2c(NC(=O)c3cccc(CN4CCC(CO)CC4)c3)sc3c2CCCC3)cc1 [Compound 640, 3-(4-Hydroxymethyl-piperidin-1-ylmethyl)-N-[3-(4-methyl-benzylidene-hydrazinocarbonyl)-4,5,6,7-tetrahydro-benzo[b]thiophen-2-yl]-benzamide] | 15.6 | 1.61
2 | O=C(Nc1sc2c(c1C(=O)N/N=C/c1cccc(F)c1)CCCC2)c1cccc(CN2CCC(CO)CC2)c1 [Compound 642, N-[3-(3-Fluoro-benzylidene-hydrazinocarbonyl)-4,5,6,7-tetrahydro-benzo[b]thiophen-2-yl]-3-(4-hydroxymethyl-piperidin-1-ylmethyl)-benzamide] | 13.3 | 2.14
3 | CC(O)CN(Cc1cccc(C(=O)Nc2sc3ccccc3c2C(=O)N/N=C/c2ccc(F)cc2)c1)CC(C)O (stereo not shown) [Compound 794, 3-{[Bis-(2-hydroxy-propyl)-amino]-methyl}-N-[3-(4-fluoro-benzylidene-hydrazinocarbonyl)-benzo[b]thiophen-2-yl]-benzamide] | 9.57 | 0.97
4 | O=C(Nc1sc2ccccc2c1C(=O)N/N=C/c1ccc(F)cc1)c1cccc(CN2CCC(CO)CC2)c1 [Compound 800, N-[3-(4-Fluoro-benzylidene-hydrazinocarbonyl)-benzo[b]thiophen-2-yl]-3-(4-hydroxymethyl-piperidin-1-ylmethyl)-benzamide] | 10 | 9.24
5 | CC(O)CN(Cc1cccc(C(=O)Nc2sc3c(c2C(=O)N/N=C/c2cccc(F)c2)CCC3)c1)CC(C)O (stereo not shown) [Compound 806, 3-{[Bis-(2-hydroxy-propyl)-amino]-methyl}-N-[3-(3-fluoro-benzylidene-hydrazinocarbonyl)-5,6-dihydro-4H-cyclopenta[b]thiophen-2-yl]-benzamide] | 12.1 | 3.9
6 | CCN(CC)CCNCc1cccc(C(=O)Nc2sc3c(c2C(=O)N/N=C/c2ccc(C)c(C)c2)CCC3)c1 [Compound 810, 3-[(2-Diethylamino-ethylamino)-methyl]-N-[3-(3,4-dimethyl-benzylidene-hydrazinocarbonyl)-5,6-dihydro-4H-cyclopenta[b]-thiophen-2-yl]-benzamide] | 23.8 | 6.68
7 | CCN(CC)CCNCc1cccc(C(=O)Nc2sc3c(c2C(=O)N/N=C/c2ccc(C)cc2)CCC3)c1 [Compound 811, 3-[(2-Diethylamino-ethylamino)-methyl]-N-[3-(4-methyl-benzylidene-hydrazinocarbonyl)-5,6-dihydro-4H-cyclopenta[b]thiophen-2-yl]-benzamide] | 37.2 | 9.11
8 | CCN(CC)CCNCc1cccc(C(=O)Nc2sc3c(c2C(=O)N/N=C/c2ccc(F)cc2)CCC3)c1 [Compound 813, 3-[(2-Diethylamino-ethylamino)-methyl]-N-[3-(4-fluoro-benzylidene-hydrazinocarbonyl)-5,6-dihydro-4H-cyclopenta[b]thiophen-2-yl]-benzamide] | 35.6 | 6.25
9 | CCN(CC)CCNCc1cccc(C(=O)Nc2sc3c(c2C(=O)N/N=C/c2ccc(Cl)c(C(F)(F)F)c2)CCC3)c1 [Compound 814, N-[3-(4-Chloro-3-trifluoromethyl-benzylidene-hydrazinocarbonyl)-5,6-dihydro-4H-cyclopenta[b]thiophen-2-yl]-3-[(2-diethylamino-ethylamino)-methyl]-benzamide] | 18.3 | < 3

Stronger by IC50 [1], values ahead:

Row | IC50 [1] [µM] | IC50 [2] [µM] | SMILES
10 | 7.53 | 2.92 | O=C(Nc1sc2c(c1C(=O)N/N=C/c1ccc(F)cc1)CCCC2)c1cccc(CN2CCC(CO)CC2)c1 [Compound 641, N-[3-(4-Fluoro-benzylidene-hydrazinocarbonyl)-4,5,6,7-tetrahydro-benzo[b]thiophen-2-yl]-3-(4-hydroxymethyl-piperidin-1-ylmethyl)-benzamide]
11 | < 3 | 1.33 | Cc1ccc(/C=N/NC(=O)c2c(C)csc2NC(=O)c2cccc(CN(CCO)CCO)c2)cc1C [Compound 786, 3-{[Bis-(2-hydroxy-ethyl)-amino]-methyl}-N-[3-(3,4-dimethyl-benzylidene-hydrazinocarbonyl)-4-methyl-thiophen-2-yl]-benzamide]
12 | < 3 | 1.69 | Cc1ccc(/C=N/NC(=O)c2c(C)csc2NC(=O)c2cccc(CN(CCO)CCO)c2)cc1 [Compound 787, 3-{[Bis-(2-hydroxy-ethyl)-amino]-methyl}-N-[4-methyl-3-(4-methyl-benzylidene-hydrazinocarbonyl)-thiophen-2-yl]-benzamide]
13 | 6.64 | 2.04 | Cc1csc(NC(=O)c2cccc(CN(CCO)CCO)c2)c1C(=O)N/N=C/c1ccc(F)cc1 [Compound 788, 3-{[Bis-(2-hydroxy-ethyl)-amino]-methyl}-N-[3-(4-fluoro-benzylidene-hydrazinocarbonyl)-4-methyl-thiophen-2-yl]-benzamide]
14 | 9.28 | 1.16 | Cc1csc(NC(=O)c2cccc(CN(CCO)CCO)c2)c1C(=O)N/N=C/c1cccc(F)c1 [Compound 789, 3-{[Bis-(2-hydroxy-ethyl)-amino]-methyl}-N-[3-(3-fluoro-benzylidene-hydrazinocarbonyl)-4-methyl-thiophen-2-yl]-benzamide]
15 | 6.7 | 5.5 | COc1ccc(/C=N/NC(=O)c2c(C)csc2NC(=O)c2cccc(CN(CCO)CCO)c2)cc1 [Compound 791, 3-{[Bis-(2-hydroxy-ethyl)-amino]-methyl}-N-[3-(4-methoxy-benzylidene-hydrazinocarbonyl)-4-methyl-thiophen-2-yl]-benzamide]
16 | 8.46 | 1.41 | Cc1ccc(/C=N/NC(=O)c2c(NC(=O)c3cccc(CN(CC(C)O)CC(C)O)c3)sc3ccccc23)cc1 (stereo not shown) [Compound 793, 3-{[Bis-(2-hydroxy-propyl)-amino]-methyl}-N-[3-(4-methyl-benzylidene-hydrazinocarbonyl)-benzo[b]thiophen-2-yl]-benzamide]
17 | 8.52 | 1.92 | CC(O)CN(Cc1cccc(C(=O)Nc2sc3ccccc3c2C(=O)N/N=C/c2cccc(F)c2)c1)CC(C)O (stereo not shown) [Compound 795, 3-{[Bis-(2-hydroxy-propyl)-amino]-methyl}-N-[3-(3-fluoro-benzylidene-hydrazinocarbonyl)-benzo[b]thiophen-2-yl]-benzamide]
18 | 3.72 | 4.7 | O=C(Nc1sc2ccccc2c1C(=O)N/N=C/c1cccc(F)c1)c1cccc(CN2CCC(CO)CC2)c1 [Compound 801, N-[3-(3-Fluoro-benzylidene-hydrazinocarbonyl)-benzo[b]thiophen-2-yl]-3-(4-hydroxymethyl-piperidin-1-ylmethyl)-benzamide]
19 | 5.96 | 1.2 | O=C(Nc1sc2ccccc2c1C(=O)N/N=C/c1ccc(Cl)c(C(F)(F)F)c1)c1cccc(CN2CCC(CO)CC2)c1 [Compound 802, N-[3-(4-Chloro-3-trifluoromethyl-benzylidene-hydrazinocarbonyl)-benzo[b]thiophen-2-yl]-3-(4-hydroxymethyl-piperidin-1-ylmethyl)-benzamide]
20 | 9.07 | < 1 | CC(O)CN(Cc1cccc(C(=O)Nc2sc3c(c2C(=O)N/N=C/c2ccc(F)cc2)CCC3)c1)CC(C)O (stereo not shown) [Compound 807, 3-{[Bis-(2-hydroxy-propyl)-amino]-methyl}-N-[3-(4-fluoro-benzylidene-hydrazinocarbonyl)-5,6-dihydro-4H-cyclopenta[b]thiophen-2-yl]-benzamide]
